Results published in patent US20180348231A1, “LIGAND INDUCIBLE POLYPEPTIDE COUPLER SYSTEM” (Intrexon Corporation, priority 2015, published 2018).
“Also recorded” adds a separate entry of the source.

Columns and labels:
[1] = tested on: split fLuc fused to EcR and RXR domains; test: Split firefly luciferase (fLuc) bioluminescence assay, EcR-RXR ligand inducible polypeptide coupler; type: cell-based
Procedure: (§1) HEK293 cells were transfected with the split fLuc fused to EcR and RXR domains as follows:
(§2) A day before transfection, 10,000 cells (293T cells) were plated into each well of a 96 well plate containing 100 μl of growth medium (Dulbecco's Modified Eagle's Medium with 10% Fetal Bovine Serum) without antibiotics. Plasmids in pairs, RxR Nluc with Cluc EcR and EcR_ Nluc with Cluc_ RxR (see FIG. 8; amino acid sequences for the constructs depicted in FIG. 8 are provided as SEQ ID NOs: 87-92, respectively. SEQ ID NOs: 91 and 92 correspond to the EcR and RXR amino sequences, respectively, employed in the constructs of FIG. 8), were transfected with Lipofectamine® 2000, according to manufacturer's specifications. Briefly, individual plasmid DNA (0.2 μg) and 0.5 μl of Lipofectamine 2000® was diluted in 25.0 μl of OptiMEM® I Reduced Serum Medium and incubated for 5 minutes at room temperature, volumes were doubled for co-transfections. Diluted plasmid DNA was combined with diluted Lipofectamine® 2000 and incubated for 20 minutes at room temperature. 50 μl of the DNA/Lipofectamine® 2000 complex was added to each well of the 96 well plate. Cells were incubated at 37° C. in a 5% CO2 incubator for 24 hours, prior to addition of the activating ligand Veledimex. […]

[2] = tested on: 293T cells; test: Bioluminescence assay, mock (no vector), activating ligand alone; type: cell-based; conditions: negative control, no split fLuc vectors; FIG. 7
Procedure: A day before transfection, 10,000 cells (293T cells) were plated into each well of a 96 well plate containing 100 μl of growth medium (Dulbecco's Modified Eagle's Medium with 10% Fetal Bovine Serum) without antibiotics. Plasmids in pairs, RxR Nluc with Cluc EcR and EcR_ Nluc with Cluc_ RxR (see FIG. 8; amino acid sequences for the constructs depicted in FIG. 8 are provided as SEQ ID NOs: 87-92, respectively. SEQ ID NOs: 91 and 92 correspond to the EcR and RXR amino sequences, respectively, employed in the constructs of FIG. 8), were transfected with Lipofectamine® 2000, according to manufacturer's specifications. Briefly, individual plasmid DNA (0.2 μg) and 0.5 μl of Lipofectamine 2000® was diluted in 25.0 μl of OptiMEM® I Reduced Serum Medium and incubated for 5 minutes at room temperature, volumes were doubled for co-transfections. Diluted plasmid DNA was combined with diluted Lipofectamine® 2000 and incubated for 20 minutes at room temperature. 50 μl of the DNA/Lipofectamine® 2000 complex was added to each well of the 96 well plate. Cells were incubated at 37° C. in a 5% CO2 incubator for 24 hours, prior to addition of the activating ligand Veledimex.
Twenty four hours (24hrs) post-transfection, cell culture media from each well of the 96-well plate was replaced with 100 nM Veledimex activating ligand and Dimethyl sulfoxide-DMSO (negative control). […]

[3] = tested on: EcR_Nluc+Cluc_EcR; test: Split fLuc bioluminescence assay, EcR-EcR homodimerization; type: cell-based; conditions: upon ligand addition, FIGS. 11 and 12
Procedure: (§3) Experiments were performed to test if nuclear receptor domains (i.e., EcR and RxR polypeptides) could be induced to homodimerize upon addition of ligand (FIGS. 11 and 12). STAT1 was used as control polypeptide since it is reported to self dimerize independent of ligand addition. Abbreviations in the figures are:
“EcR-EcR” means “EcR_Nluc+Cluc_EcR” which is a luciferase polypeptide split into two halves, such that an EcR polypeptide is fused to the N-terminus of a luciferase polypeptide fragment (EcR_Nluc) and another fragment of luciferase has an EcR polypeptide fused to its C-terminal end (Cluc_EcR); thereby activating luciferase (generation of bioluminescence) upon EcR homodimerization;

[4] = biological target: T1, RxR domains (Homo sapiens, UniProt P28702, A451V/A495S/C475T/D450E/E481D/K452R/K476R/K478T/K511R/N456S/P457A/Q477T/Q482E/Q483P/S455K/S458Q/S470A/T473E/T516V/V462L/Y479H); test: Split fLuc bioluminescence assay, RxR homodimerization; type: cell-based; conditions: FIGS. 11 and 12
T1 construct: expressed in transfected cells
Procedure: as §3
“RxR” is Retinoid X receptor;

[5] = biological target: T2, STAT1 (Homo sapiens, UniProt P42224); test: Split fLuc bioluminescence assay, STAT1 positive control; type: cell-based; conditions: Ligand − and +, FIG. 7
T2 construct: expressed in transfected cells; host or cells: HEK293 / 293T cells

[6] = biological target: T3, Cluc_RxR; test: split firefly luciferase complementation, with and without Veledimex
T3 construct: Expressed in transfected 293T cells
T3 chain: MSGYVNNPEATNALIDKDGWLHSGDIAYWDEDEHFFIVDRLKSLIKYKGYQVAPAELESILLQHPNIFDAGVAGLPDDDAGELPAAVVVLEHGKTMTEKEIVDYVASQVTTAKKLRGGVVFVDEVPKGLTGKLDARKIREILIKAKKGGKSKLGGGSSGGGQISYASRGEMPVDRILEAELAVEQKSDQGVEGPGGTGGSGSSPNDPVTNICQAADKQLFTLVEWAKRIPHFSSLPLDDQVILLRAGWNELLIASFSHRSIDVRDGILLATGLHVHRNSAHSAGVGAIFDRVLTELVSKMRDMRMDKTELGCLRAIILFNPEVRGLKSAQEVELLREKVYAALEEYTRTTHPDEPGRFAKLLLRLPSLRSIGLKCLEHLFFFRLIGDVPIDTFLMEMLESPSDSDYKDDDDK
Procedure: as §1
as §2, with “CO₂” for “CO2”

T2 sequence (P42224 with tags, fused parts or gaps): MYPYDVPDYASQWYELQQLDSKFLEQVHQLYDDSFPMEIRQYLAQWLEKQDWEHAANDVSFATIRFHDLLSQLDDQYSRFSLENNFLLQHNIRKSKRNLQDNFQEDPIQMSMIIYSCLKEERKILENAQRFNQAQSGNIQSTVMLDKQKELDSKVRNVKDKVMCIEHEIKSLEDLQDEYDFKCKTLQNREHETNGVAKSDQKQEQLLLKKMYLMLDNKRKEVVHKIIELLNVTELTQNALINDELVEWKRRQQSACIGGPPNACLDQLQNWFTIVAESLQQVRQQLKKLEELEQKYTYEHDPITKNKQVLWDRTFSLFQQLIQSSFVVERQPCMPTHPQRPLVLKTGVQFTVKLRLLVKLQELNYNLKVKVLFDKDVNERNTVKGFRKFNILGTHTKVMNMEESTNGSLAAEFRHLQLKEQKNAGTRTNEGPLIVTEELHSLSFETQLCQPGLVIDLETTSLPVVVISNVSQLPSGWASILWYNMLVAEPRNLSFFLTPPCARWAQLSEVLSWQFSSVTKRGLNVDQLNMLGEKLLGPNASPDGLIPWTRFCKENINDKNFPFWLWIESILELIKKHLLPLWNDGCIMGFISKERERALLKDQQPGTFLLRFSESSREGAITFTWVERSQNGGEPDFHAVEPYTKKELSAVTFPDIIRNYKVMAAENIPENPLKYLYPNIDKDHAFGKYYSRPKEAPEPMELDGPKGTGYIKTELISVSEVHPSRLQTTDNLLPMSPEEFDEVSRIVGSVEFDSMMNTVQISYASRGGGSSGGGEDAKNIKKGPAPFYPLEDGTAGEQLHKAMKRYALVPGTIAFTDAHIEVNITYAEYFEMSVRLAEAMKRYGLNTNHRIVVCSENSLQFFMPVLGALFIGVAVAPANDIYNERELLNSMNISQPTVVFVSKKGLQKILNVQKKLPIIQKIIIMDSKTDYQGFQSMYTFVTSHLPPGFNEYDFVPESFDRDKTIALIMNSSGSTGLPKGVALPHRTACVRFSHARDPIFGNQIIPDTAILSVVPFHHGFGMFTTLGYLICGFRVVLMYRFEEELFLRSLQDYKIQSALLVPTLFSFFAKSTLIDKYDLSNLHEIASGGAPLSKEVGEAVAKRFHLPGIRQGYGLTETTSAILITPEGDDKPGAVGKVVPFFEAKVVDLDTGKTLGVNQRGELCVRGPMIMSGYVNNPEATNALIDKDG
T2 sequence (P42224 with tags, fused parts or gaps): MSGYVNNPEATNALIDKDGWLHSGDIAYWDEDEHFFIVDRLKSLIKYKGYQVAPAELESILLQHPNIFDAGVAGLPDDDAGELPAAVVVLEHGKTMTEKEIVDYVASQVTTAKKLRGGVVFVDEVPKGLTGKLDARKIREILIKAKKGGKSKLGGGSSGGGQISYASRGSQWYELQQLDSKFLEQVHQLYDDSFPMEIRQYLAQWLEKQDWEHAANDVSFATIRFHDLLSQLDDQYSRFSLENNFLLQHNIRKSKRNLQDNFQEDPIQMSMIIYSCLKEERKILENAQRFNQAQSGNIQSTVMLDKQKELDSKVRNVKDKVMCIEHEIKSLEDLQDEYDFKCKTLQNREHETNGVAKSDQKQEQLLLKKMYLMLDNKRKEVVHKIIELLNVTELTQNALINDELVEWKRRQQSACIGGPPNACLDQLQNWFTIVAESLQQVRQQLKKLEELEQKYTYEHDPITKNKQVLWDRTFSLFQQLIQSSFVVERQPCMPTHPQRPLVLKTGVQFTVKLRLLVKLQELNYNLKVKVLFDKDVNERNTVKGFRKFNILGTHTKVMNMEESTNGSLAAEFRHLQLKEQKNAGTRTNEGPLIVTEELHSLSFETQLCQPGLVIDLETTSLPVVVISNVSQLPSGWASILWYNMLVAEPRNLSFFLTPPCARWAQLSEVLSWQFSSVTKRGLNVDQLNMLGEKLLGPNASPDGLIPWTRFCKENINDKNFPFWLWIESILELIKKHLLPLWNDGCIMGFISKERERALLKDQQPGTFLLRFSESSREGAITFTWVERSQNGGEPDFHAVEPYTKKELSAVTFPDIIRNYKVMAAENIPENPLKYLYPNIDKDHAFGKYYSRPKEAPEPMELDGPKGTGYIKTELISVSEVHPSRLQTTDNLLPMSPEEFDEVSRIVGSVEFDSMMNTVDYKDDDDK

CCC[C@@H](N(NC(=O)c1cccc(OC)c1CC)C(=O)c1cc(C)cc(C)c1)C(C)(C)C [Veledimex] was tested, and the “RxR-EcR heterodimerization (bioluminescence)” value ([1]; EcR_Nluc+Cluc_RXR, Example 2, FIGS. 11 and 12) was “strongest signal (bioluminescence) was observed”, the “fLuc signal (bioluminescence)” value ([1]; cells transfected with split fLuc fused to EcR and RXR, 100 nM Veledimex, 6 hours after addition, FIG. 7, listed as activating ligand) was “fLuc signal was detected; also recorded: a clear fLuc signal is generated; also recorded: drives split fLuc signal only in the presence of activating ligand” and the “fLuc reading, activating ligand alone” value [2] was “only background readings”. The “EcR domain homodimerization (bioluminescence)” value [3] was “statistically significant homodimerization of EcR domains”, the “RxR domain homodimerization (bioluminescence)” value [4] was “homodimerize independent of ligand” and the “Signal of the positive control (STAT1 split fLuc)” value [5] was “unaffected”.

B1: RxR Nluc (other)
chain: MDYKDDDDKEMPVDRILEAELAVEQKSDQGVEGPGGTGGSGSSPNDPVTNICQAADKQLFTLVEWAKRIPHFSSLPLDDQVILLRAGWNELLIASFSHRSIDVRDGILLATGLHVHRNSAHSAGVGAIFDRVLTELVSKMRDMRMDKTELGCLRAIILFNPEVRGLKSAQEVELLREKVYAALEEYTRTTHPDEPGRFAKLLLRLPSLRSIGLKCLEHLFFFRLIGDVPIDTFLMEMLESPSDSQISYASRGGGSSGGGEDAKNIKKGPAPFYPLEDGTAGEQLHKAMKRYALVPGTIAFTDAHIEVNITYAEYFEMSVRLAEAMKRYGLNTNHRIVVCSENSLQFFMPVLGALFIGVAVAPANDIYNERELLNSMNISQPTVVFVSKKGLQKILNVQKKLPIIQKIIIMDSKTDYQGFQSMYTFVTSHLPPGFNEYDFVPESFDRDKTIALIMNSSGSTGLPKGVALPHRTACVRFSHARDPIFGNQIIPDTAILSVVPFHHGFGMFTTLGYLICGFRVVLMYRFEEELFLRSLQDYKIQSALLVPTLFSFFAKSTLIDKYDLSNLHEIASGGAPLSKEVGEAVAKRFHLPGIRQGYGLTETTSAILITPEGDDKPGAVGKVVPFFEAKVVDLDTGKTLGVNQRGELCVRGPMIMSGYVNNPEATNALIDKDG
notes: also called R×R Nluc; RXR-fLuc
B1: binds [6].
